Measurements reported in patent US7612113B2, “Hydroxy tetrahydro-naphthalenylurea derivatives” (Xention Limited, priority 2002, dated 2009).
Like-named read-outs stand apart in the source and are kept apart here.

Tests used:
[1] = molecular target: T1, human VR1 (Homo sapiens, UniProt Q8NER1); test: capsaicin-induced Ca2+ influx in the human VR1-transfected CHO cell line (Assay 1); assay type: cell-based; settings: 10 nM capsaicin, human VR1-CHOluc9aeq cells
T1 construct: expressed in transfected cells
Source text: [Measurement of capsaicin-induced Ca^2+ influx in the human VR1-transfected CHO cell line] (Assay 1)
• (1) Establishment of the Human VR1-CHOluc9aeq Cell Line • Human vanilloid receptor (hVR1) cDNA was cloned from libraries of axotomized dorsal root ganglia (WO 00/29577). The cloned hVR1 cDNA was constructed with pcDNA3 vector and transfected into a CHOluc9aeq cell line. The cell line contains aequorin and CRE-luciferase reporter genes as read-out signals. The transfectants were cloned by limiting dilution in selection medium (DMEM/F12 medium (Gibco BRL) supplemented with 10% FCS, 1.4 mM Sodium pyruvate, 20 mM HEPES, 0.15% Sodium bicarbonate, 100 U/ml penicillin, 100 μg/ml streptomycin, 2 mM glutamine, non-essential amino acids and 2 mg/ml G418). Ca^2+ influx was examined in the capsaicin-stimulated clones. A high responder clone was selected and used for further experiments in the project. The human VR1-CHOluc9aeq cells were maintained in the selection medium and passaged every 3-4 days at 1-2.5×10^5 cells/flask ([…]). • (2) Measurement of Ca^2+ Influx Using FDSS-3000 • Human VR1-CHOluc9aeq cells were suspended in a culture medium which is the same as the selection medium except for G418 and seeded at a density of 1,000 cells per well into 384-well plates (black walled clear-base/Nalge Nunc International). Following the culture for 48 hrs the medium was changed to 2 μM Fluo-3 AM (Molecular Probes) and 0.02% Puronic F-127 in assay buffer (Hank's balanced salt solution (HBSS), 17 mM HEPES (pH7.4), 1 mM Probenecid, 0.1% BSA) and the cells were incubated for 60 min at. 25° C. After washing twice with assay buffer the cells were incubated with a test compound or vehicle for 20 min at 25° C. Mobilization of cytoplasmic Ca^2+ was measured by FDSS-3000 (λex=488 nm, λem=540 nm/Hamamatsu Photonics) for 60 sec after the stimulation with 10 nM capsaicin. Integral R was calculated and compared with controls. [Measurement of the Capsaicin-Induced Ca^2+ Influx in Primary Cultured Rat Dorsal Root Ganglia Neurons] (Assay 2) • (1) Preparation of Rat Dorsal Root Ganglia Neurons • New born Wister rats (5-11 days) were sacrificed and dorsal root ganglia (DRG) was removed. DRG was incubated with 0.1% trypsin (Gibco BRL) in PBS(−) (Gibco BRL) for 30 min at 37° C., then a half volume of fetal calf serum (FCS) was added and the cells were spun down. The DRG neuron cells were resuspended in Ham F12/5% FCS/5% horse serum (Gibco BRL) and dispersed by repeated pipetting and passing through 70 μm mesh Falcon). The culture plate was incubated for 3 hours at 37° C. to remove contaminating Schwann cells. Non-adherent cells were recovered and further cultured in laminin-coated 384 well plates (Nunc) at 1×10^4 cells/50 μl/well for 2 days in the presence of 50 ng/ml recombinant rat NGF (Sigma) and 50 μM 5-fluorodeoxyuridine (Sigma). • (2) Ca^2+ Mobilization Assay • DRG neuron cells were washed twice with HBSS supplemented with 17 mM HEPES (pH 7.4) and 0.1% BSA. After incubating with 2 μM fluo-3AM (Molecular Probe), 0.02% PF127 (Gibco BRL) and 1 mM probenecid (Sigma) for 40 min at 37° C., cells were washed 3 times. The cells were incubated with VR1 antagonists or vehicle (dimethylsulphoxide) and then with 1 μM capsaicin in FDSS-6000 (λex=480 nm, λem=520 nm/Hamamatsu Photonics). The fluorescence changes at 480 nm were monitored for 2.5 min. Integral R was calculated and compared with controls. [Organ Bath Assay to Measure the Capsaicin-Induced Bladder Contraction] (Assay 3)
The data corresponds to the compounds as yielded by solid phase synthesis and thus to levels of purity of about 40 to 90%. For practical reasons, the compounds are grouped in four classes of activity as follows: IC50=A(<or=)0.1 μM<B(<or=)0.5 μM<C(<or=)1 μM<D

[2] = Table 1, read-out: activity class
[3] = read-out: In vitro activity class
[4] = Table 3, read-out: activity class

T1 sequence (Q8NER1 whole entry): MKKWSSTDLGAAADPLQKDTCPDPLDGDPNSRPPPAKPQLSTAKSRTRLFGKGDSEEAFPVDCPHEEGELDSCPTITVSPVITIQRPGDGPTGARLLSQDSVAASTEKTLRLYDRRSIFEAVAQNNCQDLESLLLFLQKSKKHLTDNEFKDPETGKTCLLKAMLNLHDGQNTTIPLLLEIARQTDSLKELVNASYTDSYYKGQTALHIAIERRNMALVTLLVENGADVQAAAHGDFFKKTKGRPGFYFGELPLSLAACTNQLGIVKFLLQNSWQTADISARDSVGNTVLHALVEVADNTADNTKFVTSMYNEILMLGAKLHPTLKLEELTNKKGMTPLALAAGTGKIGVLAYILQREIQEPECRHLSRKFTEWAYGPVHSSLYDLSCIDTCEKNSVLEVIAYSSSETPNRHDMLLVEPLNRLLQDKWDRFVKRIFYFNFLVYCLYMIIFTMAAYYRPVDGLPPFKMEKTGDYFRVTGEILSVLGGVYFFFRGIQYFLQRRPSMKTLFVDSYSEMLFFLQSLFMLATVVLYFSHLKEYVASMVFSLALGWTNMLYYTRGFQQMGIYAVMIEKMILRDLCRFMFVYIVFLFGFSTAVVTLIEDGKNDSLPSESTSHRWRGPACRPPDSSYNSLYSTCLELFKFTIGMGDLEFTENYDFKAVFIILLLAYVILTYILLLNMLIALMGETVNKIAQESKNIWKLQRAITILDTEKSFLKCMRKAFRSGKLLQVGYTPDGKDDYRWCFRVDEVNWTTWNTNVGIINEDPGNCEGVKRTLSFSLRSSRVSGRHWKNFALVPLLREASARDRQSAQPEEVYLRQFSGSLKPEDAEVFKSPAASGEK

SMILES | IC50 [1, 2] [nM] | melting point [°C] | IC50 [1, 3] [nM] | IC50 [1, 4] [nM]
O=C(Nc1ccc(Oc2ccccc2)cc1)Nc1cccc2c1CC(O)CC2 (stereo not shown) [Example 2-20] | < 100 | 188 to 190 |  | 
CN(C)c1ccc(NC(=O)Nc2cccc3c2CC(O)CC3)cc1 (stereo not shown) [Example 2-21] | > 1000 | 206 to 207 |  | 
O=C(NCc1ccccc1)Nc1cccc2c1CC(O)CC2 (stereo not shown) [Example 2-22] | 100 to 500 | 198 to 200 |  | 
Cc1ccccc1CNC(=O)Nc1cccc2c1CC(O)CC2 (stereo not shown) [Example 2-23] | 100 to 500 | 224 to 226 |  | 
Cc1cccc(CNC(=O)Nc2cccc3c2CC(O)CC3)c1 (stereo not shown) [Example 2-24] | 100 to 500 | 194 to 196 |  | 
Cc1ccc(CNC(=O)Nc2cccc3c2CC(O)CC3)cc1 (stereo not shown) [Example 2-26] | < 100 | 230 to 232 |  | 
O=C(NCc1ccccc1F)Nc1cccc2c1CC(O)CC2 (stereo not shown) [Example 2-27] | 100 to 500 | 184 to 187 |  | 
O=C(NCc1cccc(F)c1)Nc1cccc2c1CC(O)CC2 (stereo not shown) [Example 2-28] | 100 to 500 | 193 to 194 |  | 
O=C(NCc1ccc(F)cc1)Nc1cccc2c1CC(O)CC2 (stereo not shown) [Example 2-29] | < 100 | 218 to 221 |  | 
O=C(NCc1ccccc1Cl)Nc1cccc2c1CC(O)CC2 (stereo not shown) [Example 2-30] | 100 to 500 | 213 to 215 |  | 
COc1ccc(CNC(=O)Nc2cccc3c2CC(O)CC3)cc1 (stereo not shown) [Example 2-31] | 100 to 500 | 209 to 211 |  | 
O=C(NCCc1ccccc1)Nc1cccc2c1CC(O)CC2 (stereo not shown) [Example 2-32] | 500 to 1000 | 161 to 163 |  | 
CCNC(=O)Nc1cccc2c1CC(O)CC2 (stereo not shown) [Example 2-33] | > 1000 | 216 to 217 |  | 
O=C(Nc1ccccc1)Nc1cccc2c1CC(O)CC2 (stereo not shown) [Example 2-34] | 500 to 1000 | 198 to 199 |  | 
O=C(Nc1ccc(Cl)c(C(F)(F)F)c1)Nc1ccc(Br)c2c1CC(O)CC2 (stereo not shown) [Example 2-38] | < 100 | 234 to 235 |  | 
Cc1ccc(NC(=O)Nc2ccc(Cl)c(C(F)(F)F)c2)c2c1CCC(O)C2 (stereo not shown) [Example 2-39] | < 100 | 219 to 220 |  | 
CN(C(=O)Nc1ccc(Cl)c(C(F)(F)F)c1)c1cccc2c1CC(O)CC2 (stereo not shown) [Example 2-40] | 100 to 500 | 136 to 137 |  | 
CC1(O)CCc2cccc(NC(=O)Nc3ccc(Cl)c(C(F)(F)F)c3)c2C1 (stereo not shown) [Example 2-41] | 100 to 500 | 213 |  | 
O=C(NCc1ccc(C(F)(F)F)cc1)Nc1cccc2c1C[C@H](O)CC2 [Example 4-4, N-{(R)-7-hydroxy-5,6,7,8-tetrahydro-naphthalen-1-yl}-N′-(4-trifluoromethyl-benzyl)-urea] |  | 204.3 | < 100 | 
O=C(Nc1ccc(OC(F)(F)F)cc1)Nc1cccc2c1CC(O)CC2 (stereo not shown) [Example 5-1, N-(7-hydroxy-5,6,7,8-tetrahydro-naphthalen-1-yl)-N′-(4-trifluoromethoxy-phenyl)-urea] |  | 198 to 200 | < 100 | 
O=C(Nc1cccc(F)c1)Nc1cccc2c1CC(O)CC2 (stereo not shown) [Example 5-3] |  | 204 to 205 |  | 100 to 500
O=C(Nc1ccccc1Br)Nc1cccc2c1CC(O)CC2 (stereo not shown) [Example 5-4] |  | 196 to 197 |  | 100 to 500
Cc1ccccc1NC(=O)Nc1cccc2c1CC(O)CC2 (stereo not shown) [Example 5-6] |  | 223 |  | 500 to 1000
O=C(Nc1cccc(Oc2ccccc2)c1)Nc1cccc2c1CC(O)CC2 (stereo not shown) [Example 5-10] |  | 194 to 195 |  | < 100
O=C(Nc1cccc(OC(F)(F)F)c1)Nc1cccc2c1CC(O)CC2 (stereo not shown) [Example 5-11] |  | 203 to 204 |  | < 100
O=C(Nc1cccc(I)c1)Nc1cccc2c1CC(O)CC2 (stereo not shown) [Example 5-13] |  | 226 to 228 |  | < 100
